Results from patent US12723063B2, “GIPR-agonist compounds” (Eli Lilly and Company, priority 2019, dated 2026).
pKi: −log10 of the molar value. *1 amine or outer side, *2 acyl side, *3 side chain or, on linkers, in order; H or OH if unused. Where a SMILES comes first, the peptide text is derived from it. Side-chain parts run from the residue outwards. [ ]: non-standard residue; d: D form. The star is where a group is joined. C20 diacid = O=C(O)CCCCCCCCCCCCCCCCCCC(=O)*; γGlu = O=C(O)[C@H](CCC(=O)[*:2])N[*:1]; αMeF = C[C@](N)(Cc1ccccc1)C(=O)O; 4Pal = N[C@@H](Cc1ccncc1)C(=O)O; αMeL = CC(C)C[C@](C)(N)C(=O)O; AEEA = NCCOCCOCC(=O)O; Aib = CC(C)(N)C(=O)O

Assays:
[1] = target: T1, human glucose-dependent insulinotropic peptide receptor (GIPR) (Homo sapiens, UniProt P48546); test: cAMP functional assay (HTRF) in HEK293 cells in presence of 0.1% casein; assay type: cell-based; details: HEK293 cells expressing human GIPR, geometric mean, read-out: hGIPR cAMP Rel EC50 nM (SEM, n)
T1 construct: expressed in transfected cells; host or cells: HEK293
T1 sequence (P48546 22-466): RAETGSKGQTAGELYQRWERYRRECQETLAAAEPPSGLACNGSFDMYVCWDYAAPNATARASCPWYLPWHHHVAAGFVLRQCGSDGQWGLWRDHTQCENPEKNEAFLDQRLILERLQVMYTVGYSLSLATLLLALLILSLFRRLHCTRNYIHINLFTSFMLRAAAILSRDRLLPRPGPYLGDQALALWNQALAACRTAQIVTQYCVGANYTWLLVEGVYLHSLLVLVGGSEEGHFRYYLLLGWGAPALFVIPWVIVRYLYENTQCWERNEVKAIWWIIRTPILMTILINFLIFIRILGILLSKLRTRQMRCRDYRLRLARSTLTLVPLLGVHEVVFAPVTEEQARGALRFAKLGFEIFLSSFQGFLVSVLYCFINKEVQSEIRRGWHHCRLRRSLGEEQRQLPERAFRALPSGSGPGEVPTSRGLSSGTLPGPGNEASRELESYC

human GIPR = target: T2, human GIPR (Homo sapiens, UniProt P48546); test: [125I]-GIP binding, SPA with WGA beads, 0.1% bacitracin; details: geometric mean, read-out: hGIPR Ki
T2 construct: expressed in transfected cells; crude membranes
T2 sequence (P48546 22-466): T1 sequence (P48546 22-466)
Summary of the method: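 Ki values are geometric means (SEM, n independent days), derived from four-parameter nonlinear regression of IC50. Membranes came from hGIPR-expressing CHO cells.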

Row | Structure (SMILES) | EC50 [1] [nM] | pKi (human GIPR)
1 | CC[C@H](C)[C@H](NC(=O)[C@H](CO)NC(=O)[C@H](Cc1ccc(O)cc1)NC(=O)[C@H](CC(=O)O)NC(=O)[C@H](CO)NC(=O)[C@@H](NC(=O)[C@](C)(Cc1ccccc1)NC(=O)[C@@H](NC(=O)CNC(=O)[C@H](CCC(=O)O)NC(=O)C(C)(C)NC(=O)[C@@H](N)Cc1ccc(O)cc1)[C@@H](C)O)[C@@H](C)CC)C(=O)N[C@@](C)(CC(C)C)C(=O)N[C@@H](CC(C)C)C(=O)N[C@@H](CC(=O)O)C(=O)N[C@@H](CCCCN)C(=O)N[C@@H](CCCCNC(=O)COCCOCCNC(=O)COCCOCCNC(=O)CC[C@H](NC(=O)CCCCCCCCCCCCCCCCCCC(=O)O)C(=O)O)C(=O)N[C@@H](Cc1c[nH]cn1)C(=O)N[C@@H](CCC(N)=O)C(=O)NC(C)(C)C(=O)N[C@@H](CCC(=O)O)C(=O)N[C@@H](Cc1ccccc1)C(=O)N[C@H](C(=O)N[C@@H](CCC(=O)O)C(=O)N[C@@H](Cc1ccncc1)C(=O)N[C@@H](CC(C)C)C(=O)N[C@@H](CC(C)C)C(=O)N[C@@H](C)C(=O)N[C@@H](C)C(=O)NCC(=O)N1CCC[C@H]1C(=O)N[C@@H](CO)C(=O)N[C@@H](CO)C(=O)NCC(=O)N[C@@H](C)C(=O)N1CCC[C@H]1C(=O)N1CCC[C@H]1C(=O)N1CCC[C@H]1C(=O)N[C@@H](CO)C(N)=O)C(C)C [Example 62] (H-Y[Aib]EGT[αMeF]ISDYSI[αMeL]LDKK([AEEA-AEEA-γGlu-C20 diacid])HQ[Aib]EFVE[4Pal]LLAAGPSSGAPPPS-NH2) | 0.0116 | 10.38
2 | CC[C@H](C)[C@H](NC(=O)[C@H](Cc1ccccc1)NC(=O)[C@@H](NC(=O)CNC(=O)[C@H](CCC(=O)O)NC(=O)C(C)(C)NC(=O)[C@@H](N)Cc1ccc(O)cc1)[C@@H](C)O)C(=O)N[C@@H](CO)C(=O)N[C@@H](CC(=O)O)C(=O)N[C@@H](Cc1ccc(O)cc1)C(=O)N[C@@H](CO)C(=O)N[C@H](C(=O)N[C@@](C)(CC(C)C)C(=O)N[C@@H](CC(C)C)C(=O)N[C@@H](CC(=O)O)C(=O)N[C@@H](CCCCN)C(=O)N[C@@H](CCCCNC(=O)COCCOCCNC(=O)COCCOCCNC(=O)CC[C@H](NC(=O)CCCCCCCCCCCCCCCCCCC(=O)O)C(=O)O)C(=O)N[C@@H](Cc1c[nH]cn1)C(=O)N[C@@H](CCC(N)=O)C(=O)NC(C)(C)C(=O)N[C@@H](CCC(=O)O)C(=O)N[C@@H](Cc1ccccc1)C(=O)N[C@H](C(=O)N[C@@H](CCC(=O)O)C(=O)N[C@@H](Cc1ccc(O)cc1)C(=O)N[C@@H](CC(C)C)C(=O)N[C@@H](CC(C)C)C(=O)N[C@@H](CCC(=O)O)C(=O)N[C@@H](CCC(N)=O)C(=O)NCC(=O)N1CCC[C@H]1C(=O)N[C@@H](CO)C(=O)N[C@@H](CO)C(=O)NCC(=O)N[C@@H](C)C(=O)N1CCC[C@H]1C(=O)N1CCC[C@H]1C(=O)N1CCC[C@H]1C(=O)N[C@@H](CO)C(N)=O)C(C)C)[C@@H](C)CC [Example 63] (H-Y[Aib]EGTFISDYSI[αMeL]LDKK([AEEA-AEEA-γGlu-C20 diacid])HQ[Aib]EFVEYLLEQGPSSGAPPPS-NH2) | 0.0398 | 10.61
3 | CC[C@H](C)[C@H](NC(=O)[C@H](Cc1ccccc1)NC(=O)[C@@H](NC(=O)CNC(=O)[C@H](CCC(=O)O)NC(=O)C(C)(C)NC(=O)[C@@H](N)Cc1ccc(O)cc1)[C@@H](C)O)C(=O)N[C@@H](CO)C(=O)N[C@@H](CC(=O)O)C(=O)N[C@@H](Cc1ccc(O)cc1)C(=O)N[C@@H](CO)C(=O)N[C@H](C(=O)N[C@@](C)(CC(C)C)C(=O)N[C@@H](CC(C)C)C(=O)N[C@@H](CC(=O)O)C(=O)N[C@@H](CCCCN)C(=O)N[C@@H](CCCCNC(=O)COCCOCCNC(=O)COCCOCCNC(=O)CC[C@H](NC(=O)CCCCCCCCCCCCCCCCCCC(=O)O)C(=O)O)C(=O)N[C@@H](Cc1c[nH]cn1)C(=O)N[C@@H](CCC(N)=O)C(=O)NC(C)(C)C(=O)N[C@@H](CCC(=O)O)C(=O)N[C@@H](Cc1ccccc1)C(=O)N[C@H](C(=O)N[C@@H](CCC(=O)O)C(=O)N[C@@H](Cc1ccc(O)cc1)C(=O)N[C@@H](CC(C)C)C(=O)N[C@@H](CC(C)C)C(=O)N[C@@H](CCC(=O)O)C(=O)N[C@H](C(=O)NCC(=O)N1CCC[C@H]1C(=O)N[C@@H](CO)C(=O)N[C@@H](CO)C(=O)NCC(=O)N[C@@H](C)C(=O)N1CCC[C@H]1C(=O)N1CCC[C@H]1C(=O)N1CCC[C@H]1C(=O)N[C@@H](CO)C(N)=O)[C@@H](C)O)C(C)C)[C@@H](C)CC [Example 64] (H-Y[Aib]EGTFISDYSI[αMeL]LDKK([AEEA-AEEA-γGlu-C20 diacid])HQ[Aib]EFVEYLLETGPSSGAPPPS-NH2) | 0.0448 | 10.66
4 | CC[C@H](C)[C@H](NC(=O)[C@H](Cc1ccccc1)NC(=O)[C@@H](NC(=O)CNC(=O)[C@H](CCC(=O)O)NC(=O)C(C)(C)NC(=O)[C@@H](N)Cc1ccc(O)cc1)[C@@H](C)O)C(=O)N[C@@H](CO)C(=O)N[C@@H](CC(=O)O)C(=O)N[C@@H](Cc1ccc(O)cc1)C(=O)N[C@@H](CO)C(=O)N[C@H](C(=O)N[C@@](C)(CC(C)C)C(=O)N[C@@H](CC(C)C)C(=O)N[C@@H](CC(=O)O)C(=O)N[C@@H](CCCCN)C(=O)N[C@@H](CCCCNC(=O)COCCOCCNC(=O)COCCOCCNC(=O)CC[C@H](NC(=O)CCCCCCCCCCCCCCCCCCC(=O)O)C(=O)O)C(=O)N[C@@H](Cc1c[nH]cn1)C(=O)N[C@@H](CCC(N)=O)C(=O)NC(C)(C)C(=O)N[C@@H](CCC(=O)O)C(=O)N[C@@H](Cc1ccccc1)C(=O)N[C@H](C(=O)N[C@@H](CCC(=O)O)C(=O)N[C@@H](Cc1ccc(O)cc1)C(=O)N[C@@H](CC(C)C)C(=O)N[C@@H](CC(C)C)C(=O)N[C@@H](CCC(=O)O)C(=O)N[C@@H](C)C(=O)NCC(=O)N1CCC[C@H]1C(=O)N[C@@H](CO)C(=O)N[C@@H](CO)C(=O)NCC(=O)N[C@@H](C)C(=O)N1CCC[C@H]1C(=O)N1CCC[C@H]1C(=O)N1CCC[C@H]1C(=O)N[C@@H](CO)C(N)=O)C(C)C)[C@@H](C)CC [Example 65] (H-Y[Aib]EGTFISDYSI[αMeL]LDKK([AEEA-AEEA-γGlu-C20 diacid])HQ[Aib]EFVEYLLEAGPSSGAPPPS-NH2) | 0.0346 | 10.50
5 | CC[C@H](C)[C@H](NC(=O)[C@H](Cc1ccccc1)NC(=O)[C@@H](NC(=O)CNC(=O)[C@H](CCC(=O)O)NC(=O)C(C)(C)NC(=O)[C@@H](N)Cc1ccc(O)cc1)[C@@H](C)O)C(=O)N[C@@H](CO)C(=O)N[C@@H](CC(=O)O)C(=O)N[C@@H](Cc1ccc(O)cc1)C(=O)N[C@@H](CO)C(=O)N[C@H](C(=O)N[C@@](C)(CC(C)C)C(=O)N[C@@H](CC(C)C)C(=O)N[C@@H](CC(=O)O)C(=O)N[C@@H](CCCCN)C(=O)N[C@@H](CCCCNC(=O)COCCOCCNC(=O)COCCOCCNC(=O)CC[C@H](NC(=O)CCCCCCCCCCCCCCCCCCC(=O)O)C(=O)O)C(=O)N[C@@H](Cc1c[nH]cn1)C(=O)N[C@@H](CCC(N)=O)C(=O)NC(C)(C)C(=O)N[C@@H](CC(=O)O)C(=O)N[C@@H](Cc1ccccc1)C(=O)N[C@H](C(=O)N[C@@H](CCC(=O)O)C(=O)N[C@@H](Cc1ccc(O)cc1)C(=O)N[C@@H](CC(C)C)C(=O)N[C@@H](CC(C)C)C(=O)N[C@@H](CCC(=O)O)C(=O)N[C@H](C(=O)NCC(=O)N1CCC[C@H]1C(=O)N[C@@H](CO)C(=O)N[C@@H](CO)C(=O)NCC(=O)N[C@@H](C)C(=O)N1CCC[C@H]1C(=O)N1CCC[C@H]1C(=O)N1CCC[C@H]1C(=O)N[C@@H](CO)C(N)=O)[C@@H](C)O)C(C)C)[C@@H](C)CC [Example 66] (H-Y[Aib]EGTFISDYSI[αMeL]LDKK([AEEA-AEEA-γGlu-C20 diacid])HQ[Aib]DFVEYLLETGPSSGAPPPS-NH2) | 0.0786 | 10.06
